Counter-ions that a name gives are not always drawn.
Key:
[1] = system: Monosodium Iodoacetate-Induced Osteoarthritis in Rat; test: MIA Rat: hind-paw weight distribution; assay type: in vivo; conditions: for % Inhibition (of cartilage damage, hind-paw weight distribution): 14 days, Day 14; for preventing or treating cartilage damage (conclusion from Table 5): MIA Rat, doses and routes of Table 5
From the text: One end result of the induction of osteoarthritis in this model, as determined by histologic analysis, is the development of an osteoarthritic condition within the affected joint, as characterized by the loss of Toluidine blue staining and formation of osteophytes. Associated with the histologic changes is a concentration-dependent degradation of joint cartilage, as evidenced by affects on hind-paw weight distribution of the limb containing the affected joint, the presence of increased amounts of proteoglycan or hydroxyproline in the joint upon biochemical analysis, or histopathological analysis of the osteoarthritic lesions.
In the MIA Rat model on Day 0, the hind-paw weight differential between the right arthritic joint and the left healthy joint of male Wistar rats (150 g) were determined with an incapacitance tester, model 2KG (Linton Instrumentation, Norfolk, United Kingdom). The incapacitance tester has a chamber on top with an outwardly sloping front wall that supports a rat's front limbs, and two weight sensing pads, one for each hind paw, that facilitates this determination. Then the rats were anesthetized with isofluorine, and the right, hind leg knee joint was injected with 1.0 mg of mono-iodoacetate (“MIA”) through the infrapatellar ligament. […] The rats were further administered either a GABA analog or vehicle (in the instant case, water) daily for 14 days. The GABA analog was typically administered at a dose of 30 mg of GABA analog per kilogram of rat per day (30 mg/kg/day), but may be administered at other doses such as, for example, 10 mg/kg/day, 60 mg/kg/day, or 100 mg/kg/day according to the requirements of the compound being studied. It is well within the level of ordinary skill in the pharmaceutical arts to determine a proper dosage of a GABA analog in this model. In the instant experiment, administration of the GABA analog was optionally by oral administration or intravenous administration via an osmotic pump. After 7 and 14 days, the hind-paw weight distribution was again determined. […] Percent inhibition of cartilage damage was calculated as the percent change in hind-paw weight distribution for treated animals versus control animals:
[formula] wherein: ΔWC is the hind-paw weight differential between the healthy left limb and the arthritic limb of the control animal administered vehicle alone, as measured on Day 14; and • ΔWG is the hind-paw weight differential between the healthy left limb and the arthritic limb of the animal administered a GABA analog, as measured on Day 14.
The results of the hind-paw weight distribution data are shown below in Table 5 in the column labelled “% Inhibition”.

[2] = system: Monosodium Iodoacetate-Induced Osteoarthritis in Rat; test: MIA Rat: free proteoglycan in knee joint; assay type: in vivo; conditions: for treatment of cartilage damage (conclusion from Table 6): MIA Rat, osmotic pump 30 mg/kg/day; for Proteoglycan loss (%) / Inhibition of Proteoglycan loss (%): intravenously by osmotic pump 30 mg/kg/day; for Proteoglycan loss (%): osteoarthritic right knee joint vs contralateral left knee joint, vehicle 18.10 (1b) and 31.90 (2b); for Inhibition of Proteoglycan loss (%): versus vehicle (water)
From the text: The incapacitance tester has a chamber on top with an outwardly sloping front wall that supports a rat's front limbs, and two weight sensing pads, one for each hind paw, that facilitates this determination. […] The rats were further administered either a GABA analog or vehicle (in the instant case, water) daily for 14 days. […] It is well within the level of ordinary skill in the pharmaceutical arts to determine a proper dosage of a GABA analog in this model. In the instant experiment, administration of the GABA analog was optionally by oral administration or intravenous administration via an osmotic pump. After 7 and 14 days, the hind-paw weight distribution was again determined. […] Percent inhibition of cartilage damage was calculated as the percent change in hind-paw weight distribution for treated animals versus control animals: In order to measure biochemical or histopathological end points in the MIA Rat model, some of the animals in the above study were then sacrificed, and the amounts of free proteoglycan in both the osteoarthritic right knee joint and the contralateral left knee joint were determined by biochemical analysis. The amount of free proteoglycan in the contralateral left knee joint provides a baseline value for the amount of free proteoglycan in a healthy joint. The amount of proteoglycan in the osteoarthritic right knee joint in animals further administered a GABA analog, and the amount of proteoglycan in the osteoarthritic right knee joint in animals further administered vehicle alone, were independently compared to the amount of proteoglycan in the contralateral left knee joint. The amounts of proteoglycan lost in the osteoarthritic right knee joints were expressed as percent loss of proteoglycan compared to the contralateral left knee joint control. The results are shown below in Table 6 in the column labelled, “Proteoglycan loss (%)”. Also shown in Table 6, in the column labelled “Inhibition of Proteoglycan loss (%)”, is the percent inhibition of proteoglycan loss, which was calculated as {[(proteoglycan loss from joint (%) with vehicle)−(proteoglycan loss from joint with GABA analog)]÷(proteoglycan loss from joint (%) with vehicle)}×100.

[3] = system: Experimental Osteoarthritis in Rabbit; test: EOA in Rabbit: histologic grading of cartilage lesions (Mankin scale); assay type: in vivo; conditions: for Cells (0–3) / Safranin-O Staining (0–4) / Structure (0–6) / Total (0–13): 150 mg/kg/po/day, 8 weeks after surgery, mean ± SEM
Procedure: (§1) Normal rabbits were anaesthetized and anteromedial incisions of the right knees performed. The anterior cruciate ligaments were visualized and sectioned. The wounds were closed and the animals were housed in individual cages, exercised, and fed ad libitum. Rabbits were given either vehicle (water), gabapentin, or 3-(1-aminomethyl-cyclohexylmethyl)-4h-[1,2,4]oxadiazol-5-one hydrochloride (10 rabbits per group). Each group was dosed three times per day with the gabapentin group receiving 100-mg/kg/dose and the 3-(1-aminomethyl-cyclohexylmethyl)-4h-[1,2,4]oxadiazol-5-one hydrochloride group receiving 50-mg/kg/dose. The rabbits were euthanized 8 weeks after surgery and the proximal end of the tibia and the distal end of the femur were removed from each animal.
Histologic evaluation was performed on sagittal sections of cartilage from the lesional areas of the femoral condyle and tibial plateau. Serial sections (5 um) were prepared and stained with safranin-O. The severity of OA lesions was graded on a scale of 0–14 by two independent observers using the histologic-histochemical scale of Mankin et al. This scale evaluates the severity of OA lesions based on the loss of safranin-O staining (scale 0–4), cellular changes (scale 0–3), invasion of tidemark by blood vessels (scale 0–1) and structural changes (scale 0–6). On this latter scale, 0 indicates normal cartilage structure and 6 indicates erosion of the cartilage down to the subchondral bone. The scoring system was based on the most severe histologic changes in the multiple sections.
(§2) Mean values and SEM was calculated and statistical analysis was done using the Mann-Whitney U-test.

[4] = system: Experimental Osteoarthritis in Rabbit; test: EOA in Rabbit: macroscopic grading of cartilage lesions; assay type: in vivo
Procedure: as §1
The cartilage changes on the femoral condyles and tibial plateaus were graded separately under a dissecting microscope (Stereozoom, Bausch & Lomb, Rochester, N.Y.). The depth of erosion was graded on a scale of 0 to 4 as follows: grade 0=normal surface; Grade 1=minimal fibrillation or a slight yellowish discoloration of the surface; Grade 2=erosion extending into superficial or middle layers only; Grade 3=erosion extending into deep layers; Grade 4=erosion extending to subchondral bone. The surface area changes was measured and expressed in mm^2. Representative specimens will also be used for histologic grading (see below).
as §2

[5] = system: Experimental Osteoarthritis in Rabbit; test: EOA in Rabbit: histological grading of synovial membrane; assay type: in vivo; conditions: 150 mg/kg/po/day, 8 weeks after surgery, mean ± SEM
Procedure: as §1
Representative specimens of synovial membrane from the medial and lateral knee compartments were dissected from underlying tissues. The specimens were fixed, embedded, and sectioned (5 um) as above, and stained with hematoxylin-eosin. For each compartment, two synovial membrane specimens were examined for scoring purposes and the highest score from each compartment was retained. The average was calculated and considered as a unit for the whole knee. The severity of synovitis was graded on a scale of 0 to 10 by two independent observers, adding the scores of 3 histologic criteria: synovial lining cell hyperplasia (scale 0–2); villous hyperplasia (scale 0–3); and degree of cellular infiltration by mononuclear and polymorphonuclear cells (scale 0–5): 0 indicates normal structure.
as §2

[6] = 30 mg/kg oral, twice daily dosing of the indicated dose
[7] = daily dose 30 mg/kg, osmotic pump
[8] = 50 mg/kg/dose three times per day, 8 weeks, Table 1

CS(=O)(=O)NCCC1(CN)CCCCC1.Cl
melting point: 196 to 199 °C

CC(C)C[C@H](CN)CC(=O)O [Pregabalin, (S)-3-(aminomethyl)-5-methylhexanoic acid, reference compound]
% Inhibition (of cartilage damage, hind-paw weight distribution) [1, 6]: −3 ± 12%

Cl.NCC1(Cc2noc(=S)[nH]2)CCCCC1
melting point: 210 to 212 °C

Cl.NCC1(CC(=O)O)CC2CCC2C1 (stereo not drawn) [(1α,3α,5α)(3-Aminomethyl-bicyclo[3.2.0]hept-3-yl)-acetic acid hydrochloride]
% Inhibition (of cartilage damage, hind-paw weight distribution) [1, 7]: −3 ± 34%
treatment of cartilage damage (conclusion from Table 6) [2]: effective
Proteoglycan loss (%) [2]: 16.60%
Inhibition of Proteoglycan loss (%) [2]: 48%

CCCC(C(C)C)C(CN)CC(=O)O (stereo not drawn) (as salt: HCl)
melting point: 160 to 170 °C

CC(C)CC(CN)Cc1noc(=O)[nH]1.Cl (stereo not drawn) [3-(2-Aminomethyl-4-methyl-pentyl)-4H-[1,2,4]oxadiazole-5-one; HCl]
preventing or treating cartilage damage (conclusion from Table 5) [1]: effective
% Inhibition (of cartilage damage, hind-paw weight distribution) [1, 7]: 35 ± 8%

Cl.NCC1(Cc2noc(=O)[nH]2)CCCCC1 [3-(1-Aminomethyl-cyclohexylmethyl)-4H-[1,2,4]oxadiazol-5-one; hydrochloride]
% Inhibition (of cartilage damage, hind-paw weight distribution) [1, 6]: 47 ± 20%
preventing or treating cartilage damage (conclusion from Table 5) [1]: effective
% Inhibition (of cartilage damage, hind-paw weight distribution) [1, 7]: 46 ± 10%
histologic damage (in words) ([3]; 50 mg/kg/dose three times per day, 8 weeks, text on Table 2 and 3): reduced histologic damage
Cells (0–3) ([3]; Femoral Condyles): 1.60 ± 0.2
Safranin-O Staining (0–4) ([3]; Femoral Condyles): 1.25 ± 0.3
Structure (0–6) ([3]; Femoral Condyles, p < 0.01): 1.35 ± 0.3
Total (0–13) ([3]; Femoral Condyles, p < 0.04): 4.20 ± 0.6
Cells (0–3) ([3]; Tibial Plateaus): 0.60 ± 0.2
Safranin-O Staining (0–4) ([3]; Tibial Plateaus): 0.18 ± 0.1
Structure (0–6) ([3]; Tibial Plateaus): 0.90 ± 0.2
Total (0–13) ([3]; Tibial Plateaus, p > 0.02): 1.77 ± 0.4
treatment of cartilage damage (conclusion from Table 6) [2]: effective
Proteoglycan loss (%) [2]: 6.70%
Inhibition of Proteoglycan loss (%) [2]: 63%
damage score for both the femoral condyles and the tibial plateaus (in words) [4, 8]: reduced
lesion size on the plateaus (in words) [4, 8]: reduced
Femoral Condyles Size ([4]; 150 mg/kg/po/day (50 mg/kg/dose three times per day), 8 weeks after surgery, mean ± SEM): 6.93 ± 3.1 mm^2
Tibial Plateaus Size ([4]; 150 mg/kg/po/day (50 mg/kg/dose three times per day), 8 weeks after surgery, mean ± SEM, p < 0.002): 1.95 ± 0.8 mm^2
Tibial Plateaus Grade (0–4) ([4]; 150 mg/kg/po/day (50 mg/kg/dose three times per day), 8 weeks after surgery, mean ± SEM, p < 0.02): 0.55 ± 0.2
Femoral Condyles Grade (0–4) ([4]; 150 mg/kg/po/day (50 mg/kg/dose three times per day), 8 weeks after surgery, mean ± SEM, p < 0.04): 0.67 ± 0.2
treatment of cartilage damage (conclusion from the EOA in Rabbit study) ([4]; gabapentin 100 mg/kg/dose, test compound 50 mg/kg/dose, three times per day, 8 weeks): effective
Cellular Infiltration (0–5 Scale) [5]: 0.35 ± 0.2
Synovial Lining (0–2 Scale) [5]: 0.85 ± 0.1
Villous Hyperplasia (0–3 Scale) ([5]; p < 0.001): 1.15 ± 0.1
Total (0–10) ([5]; p < 0.002): 2.35 ± 0.3

Cl.NCC1(Cc2noc(=O)[nH]2)CCCCCC1 [3-(1-aminomethyl-cycloheptylmethyl)-4H-[1,2,4]oxadiazol-5-one hydrochloride]
preventing or treating cartilage damage (conclusion from Table 5) [1]: effective
% Inhibition (of cartilage damage, hind-paw weight distribution) [1, 7]: 62 ± 8%

Cl.NCC(c1noc(=O)[nH]1)C1CCCC1 (stereo not drawn) [3-(2-amino-1-cyclopentyl-ethyl)-4H-[1,2,4]oxadiazol-5-one hydrochloride]
preventing or treating cartilage damage (conclusion from Table 5) [1]: effective
% Inhibition (of cartilage damage, hind-paw weight distribution) [1, 7]: 104%

NCC1(Cc2nnn[nH]2)CCCCCC1 [C-[1-(1H-tetrazol-5-ylmethyl)-cycloheptyl]-methylamine]
% Inhibition (of cartilage damage, hind-paw weight distribution) [1, 7]: −33 ± 17%

CC(C)CC(CN)Cc1noc(=S)[nH]1.Cl (stereo not drawn)
melting point: 183 to 185 °C

Source: US7189747B2, “Method of treating noninflammatory cartilage damage” (Warner-Lambert Company, priority 2000, dated 2007)
